Columns and labels:
[1] = tested on: fatty acid synthase (FAS); test: Expression of FAS in liver tissue by Western blotting; assay type: in vivo, rats; settings: expression decreased by chronic alcohol intake; oral daily for the last week, alone at high dose or concurrently; FIG. 5
Description: The decreased expression of FAS was not restored by the administration of metadoxine or garlic oil alone at high dose.

[2] = tested on: acetyl-CoA carboxylase (ACC); settings: activity decreased due to alcohol intake; oral daily for the last week, alone or concurrently; FIG. 9
Description: (§1) Sodium dodecyl sulfate-polyacrylamide gel electrophoresis (SDS-PAGE) was carried out using Mighty Small II SE 250 apparatus according to the Laemmli UK method (1970). Lysis fraction of liver tissue was diluted in a sample dilution buffer [63 mM Tris (pH 6.8), 10% glycerol, 2% SDS, 0.0013% bromophenol blue, 5% β-mercaptoethanol] and electrophoresis was performed in an electrode buffer (15 g of Tris, 72 g of glycine and 5 g of SDS in 1 L) using 7.5% and 9% gel. After electrophoresis, proteins were transferred to nitrocellulose paper at 190 mAmps for a duration of 1 hour, using a transfer buffer [25 mM Tris, 192 mM glycine, 20% v/v methanol (pH 8.3)]. Anti-fatty acid synthase, anti-iNOS, anti-phospho AMPK-α anti-phospho ACC, anti-Fox01, anti-Fox03 and anti-CYP2E1 were reacted as primary antibodies. […] Change in the expression of proteins was analyzed by determining the color intensity of blots through densitometry. […]
(§2) The levels of AMPK (AMP-activated protein kinase), a critical enzyme involved in the oxidation of fatty acid, and phosphate form of ACC (acetyl-CoA carboxylase), a substrate of AMPK, in the liver tissue taken in Example 1 were analyzed by Western blotting.

[3] = tested on: AMP-activated protein kinase (AMPK); test: Activity (phospho level) of AMPK in liver tissue by Western blotting; assay type: in vivo, rats; settings: activity decreased due to alcohol intake; oral daily for the last week, alone or concurrently; FIG. 8
Description: as §1, §2

[4] = tested on: inducible nitric oxide synthase (iNOS); test: Expression of iNOS in liver tissue by Western blotting; assay type: in vivo, rats; settings: expression strongly induced by chronic alcohol intake; oral daily for the last week, alone or concurrently; FIG. 7
Description: iNOS is an enzyme strongly inducing inflammation in liver tissue. The induction of the expression of iNOS is considered as a primary mechanism of alcohol-induced liver damage (Mckim, et al., Gastroenterology 125:1834-1844, 2003; and Venkatraman A, et al., Hepatology 40: 565-573, 2004).

In the case of `Cc1ncc(CO)c(CO)c1O.O=C1CCC(C(=O)O)N1` [metadoxine, pyridoxol 1-2-pyrrolidone-5-carboxylate], the “expression of fatty acid synthase (FAS) in liver tissue” value [1] is reported as “not restored”, the “activity of ACC in liver tissue” value [2] is reported as “no change” and the “activity of AMPK in liver tissue” value [3] is reported as “no change”. For the same compound, the “expression of iNOS in liver tissue” value [4] was “decreased”.

Reference: US8158170B2 (SNU R&DB Foundation, priority 2006, dated 2012)
